Test results as given in patent US20240124442A1, “TRICYCLIC-AMIDO-BICYCLIC PRMT5 INHIBITORS” (AMGEN INC., priority 2021, published 2024).

system: HCT116 WT cells; test: HCT116 WT (parent) cell line proliferation / cell viability (CellTiter-Glo, 6 days); format: cell-based; conditions: Homo sapiens, HCT-116, 144 h, 6 days treatment
Method in brief: (§1)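 WT vs MTAP-null HCT116, 6 d drug, CTG readout. 1:3 × 8–9 pts (top 1/10 μM) or 1:2 × 22 pts (top 10/50 μM). IC50 by 4PL or Hill −1 fit.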

**Q.** For CN(C(=O)c1cc2c3c(c(N)nc2cc1F)COC3)[C@H]1COc2cc(C(F)(F)F)ccc21 (single isomer, unassigned) [Example 553], which IC50 is on record?
**A.** The IC50 was 11400 nM.

**Q.** How did the IC50 turn out when Nc1nc2cc(F)c(C(=O)N(C3CC3)[C@@H]3COc4cc(C(F)(F)F)ccc43)cc2c2c1COC2 (single isomer, unassigned) [Example 554] was run?
**A.** The IC50 was 1400 nM.

**Q.** With Nc1nc2cc(F)c(C(=O)N(C3CC3)[C@H]3COc4cc(C(F)(F)F)ccc43)cc2c2c1COC2 (single isomer, unassigned) [Example 555] as the compound, how does the IC50 read?
**A.** The IC50 was 13300 nM.

**Q.** How did the IC50 turn out when Nc1nc2cc(F)c(C(=O)N(CC3CC3)[C@@H]3COc4cc(C(F)(F)F)ccc43)cc2c2c1COC2 (single isomer, unassigned) [Example 556] was run?
**A.** Its IC50 is 133 nM.

**Q.** Nc1nc2cc(F)c(C(=O)N(CC3CC3)[C@H]3COc4cc(C(F)(F)F)ccc43)cc2c2c1COC2 (single isomer, unassigned) [Example 557] was tested. Which IC50 did it give?
**A.** The IC50 was 10500 nM.

**Q.** With CN(C(=O)c1cc2c3c(c(N)nc2cc1Cl)COC3)[C@@H]1CCc2nc(C(F)(F)F)ccc21 (single isomer, unassigned) [Example 558] as the compound, how does the IC50 read?
**A.** Its IC50 is 941 nM.

**Q.** CN(C(=O)c1cc2c3c(c(N)nc2cc1Cl)COC3)[C@H]1CCc2nc(C(F)(F)F)ccc21 (single isomer, unassigned) [Example 559] was tested. Which IC50 did it give?
**A.** The IC50 was 41400 nM.

**Q.** For CN(C(=O)c1cc2c3c(c(N)nc2cc1Cl)COC3)[C@@H]1COc2cc(C(F)(F)F)ccc21 (single isomer, unassigned) [Example 560], which IC50 is on record?
**A.** Its IC50 is 594 nM.

**Q.** Which IC50 does the source give for CN(C(=O)c1cc2c3c(c(N)nc2cc1Cl)COC3)[C@H]1COc2cc(C(F)(F)F)ccc21 (single isomer, unassigned) [Example 561] here?
**A.** The IC50 was 10800 nM.

**Q.** For CN(C(=O)c1cc2c3c(c(N)nc2cc1Cl)COC3)[C@@H]1COc2nc(C(F)(F)F)ccc21 (single isomer, unassigned) [Example 562], which IC50 is on record?
**A.** The IC50 was 1820 nM.

**Q.** CN(C(=O)c1cc2c3c(c(N)nc2cc1Cl)COC3)[C@H]1COc2nc(C(F)(F)F)ccc21 (single isomer, unassigned) [Example 563] was tested. Which IC50 did it give?
**A.** Its IC50 is 25100 nM.

**Q.** For CN(C(=O)c1cc2c3c(c(N)nc2cc1Cl)COC3)[C@@H]1COc2cc(S(C)(=O)=O)ccc21 (single isomer, unassigned) [Example 564], which IC50 is on record?
**A.** Its IC50 is 925 nM.

**Q.** Which IC50 does the source give for CN(C(=O)c1cc2c3c(c(N)nc2cc1Cl)COC3)[C@H]1COc2cc(S(C)(=O)=O)ccc21 (single isomer, unassigned) [Example 565] here?
**A.** Its IC50 is 15000 nM.

**Q.** Which IC50 does the source give for CN(C(=O)c1cc2c3c(c(N)nc2cc1Cl)COC3)[C@@H]1COc2cc(C(F)(F)F)cc(F)c21 (single isomer, unassigned) [Example 566] here?
**A.** Its IC50 is 447 nM.

**Q.** For CN(C(=O)c1cc2c3c(c(N)nc2cc1Cl)COC3)[C@H]1COc2cc(C(F)(F)F)cc(F)c21 (single isomer, unassigned) [Example 567], which IC50 is on record?
**A.** Its IC50 is 9870 nM.

**Q.** How did the IC50 turn out when CN(C(=O)c1cc2c(cn1)nc(N)c1cnn(C)c12)[C@@H]1COc2cc(C(F)(F)F)ncc21 (single isomer, unassigned) [Example 568] was run?
**A.** Its IC50 is 5800 nM.

**Q.** CN(C(=O)c1cc2c(cc1F)nc(N)c1cnn(C)c12)[C@@H]1COc2cc(OC(F)F)ccc21 (single isomer, unassigned) [Example 569] was tested. Which IC50 did it give?
**A.** The IC50 was 222 nM.

**Q.** For CN(C(=O)c1cc2c(cc1F)nc(N)c1cnn(C)c12)[C@H]1COc2cc(OC(F)F)ccc21 (single isomer, unassigned) [Example 570], which IC50 is on record?
**A.** Its IC50 is 9210 nM.

**Q.** CN(C(=O)c1cc2c(cc1F)nc(N)c1cnn(C)c12)[C@@H]1COc2cc(C(F)(F)F)ccc21 (single isomer, unassigned) [Example 571] was tested. Which IC50 did it give?
**A.** The IC50 was 116 nM.

**Q.** CN(C(=O)c1cc2c(cc1F)nc(N)c1cnn(C)c12)[C@H]1COc2cc(C(F)(F)F)ccc21 (single isomer, unassigned) [Example 572] was tested. Which IC50 did it give?
**A.** Its IC50 is 11400 nM.

**Q.** CN(C(=O)c1cc2c(cc1F)nc(N)c1cnn(C)c12)[C@@H]1COc2cc(C(F)(F)F)ncc21 (single isomer, unassigned) [Example 573] was tested. Which IC50 did it give?
**A.** The IC50 was 685 nM.

**Q.** Which IC50 does the source give for CN(C(=O)c1cc2c(cc1F)nc(N)c1cnn(C)c12)[C@H]1COc2cc(C(F)(F)F)ncc21 (single isomer, unassigned) [Example 574] here?
**A.** The IC50 was 40100 nM.

**Q.** With CN(C(=O)c1ccc2nc(N)c3c(cnn3C)c2c1)[C@@H]1COc2cc(C(F)(F)F)ccc21 (single isomer, unassigned) [Example 575] as the compound, how does the IC50 read?
**A.** The IC50 was 7610 nM.

**Q.** How did the IC50 turn out when CN(C(=O)c1ccc2nc(N)c3c(cnn3C)c2c1)[C@H]1COc2cc(C(F)(F)F)ccc21 (single isomer, unassigned) [Example 576] was run?
**A.** The IC50 was 13200 nM.

system: HCT116 MTAP null cells; test: HCT116 MTAP null cell line proliferation / cell viability (CellTiter-Glo, 6 days); format: cell-based; conditions: 144 h; HCT116 MTAP null cells, 6 days treatment, CellTiter-Glo cell viability; read-out: HCT-116 MTAP null IC50
Method in brief: as §1

**Q.** Which IC50 does the source give for CN(C(=O)c1cc2c3c(c(N)nc2cc1F)COC3)[C@H]1COc2cc(C(F)(F)F)ccc21 (single isomer, unassigned) [Example 553] here?
**A.** Its IC50 is 1380 nM.

**Q.** Which IC50 does the source give for Nc1nc2cc(F)c(C(=O)N(C3CC3)[C@@H]3COc4cc(C(F)(F)F)ccc43)cc2c2c1COC2 (single isomer, unassigned) [Example 554] here?
**A.** Its IC50 is 21 nM.

**Q.** How did the IC50 turn out when Nc1nc2cc(F)c(C(=O)N(C3CC3)[C@H]3COc4cc(C(F)(F)F)ccc43)cc2c2c1COC2 (single isomer, unassigned) [Example 555] was run?
**A.** The IC50 was 1620 nM.

**Q.** How did the IC50 turn out when Nc1nc2cc(F)c(C(=O)N(CC3CC3)[C@@H]3COc4cc(C(F)(F)F)ccc43)cc2c2c1COC2 (single isomer, unassigned) [Example 556] was run?
**A.** Its IC50 is 11 nM.

**Q.** Which IC50 does the source give for Nc1nc2cc(F)c(C(=O)N(CC3CC3)[C@H]3COc4cc(C(F)(F)F)ccc43)cc2c2c1COC2 (single isomer, unassigned) [Example 557] here?
**A.** Its IC50 is 665 nM.

**Q.** CN(C(=O)c1cc2c3c(c(N)nc2cc1Cl)COC3)[C@@H]1CCc2nc(C(F)(F)F)ccc21 (single isomer, unassigned) [Example 558] was tested. Which IC50 did it give?
**A.** Its IC50 is 17 nM.

**Q.** With CN(C(=O)c1cc2c3c(c(N)nc2cc1Cl)COC3)[C@H]1CCc2nc(C(F)(F)F)ccc21 (single isomer, unassigned) [Example 559] as the compound, how does the IC50 read?
**A.** The IC50 was 1280 nM.

**Q.** With CN(C(=O)c1cc2c3c(c(N)nc2cc1Cl)COC3)[C@@H]1COc2cc(C(F)(F)F)ccc21 (single isomer, unassigned) [Example 560] as the compound, how does the IC50 read?
**A.** Its IC50 is 12 nM.

**Q.** Which IC50 does the source give for CN(C(=O)c1cc2c3c(c(N)nc2cc1Cl)COC3)[C@H]1COc2cc(C(F)(F)F)ccc21 (single isomer, unassigned) [Example 561] here?
**A.** The IC50 was 657 nM.

**Q.** Which IC50 does the source give for CN(C(=O)c1cc2c3c(c(N)nc2cc1Cl)COC3)[C@@H]1COc2nc(C(F)(F)F)ccc21 (single isomer, unassigned) [Example 562] here?
**A.** Its IC50 is 26 nM.

**Q.** Which IC50 does the source give for CN(C(=O)c1cc2c3c(c(N)nc2cc1Cl)COC3)[C@H]1COc2nc(C(F)(F)F)ccc21 (single isomer, unassigned) [Example 563] here?
**A.** The IC50 was 1960 nM.

**Q.** For CN(C(=O)c1cc2c3c(c(N)nc2cc1Cl)COC3)[C@@H]1COc2cc(S(C)(=O)=O)ccc21 (single isomer, unassigned) [Example 564], which IC50 is on record?
**A.** Its IC50 is 19 nM.

**Q.** For CN(C(=O)c1cc2c3c(c(N)nc2cc1Cl)COC3)[C@H]1COc2cc(S(C)(=O)=O)ccc21 (single isomer, unassigned) [Example 565], which IC50 is on record?
**A.** Its IC50 is 858 nM.

**Q.** How did the IC50 turn out when CN(C(=O)c1cc2c3c(c(N)nc2cc1Cl)COC3)[C@@H]1COc2cc(C(F)(F)F)cc(F)c21 (single isomer, unassigned) [Example 566] was run?
**A.** The IC50 was 13 nM.

**Q.** CN(C(=O)c1cc2c3c(c(N)nc2cc1Cl)COC3)[C@H]1COc2cc(C(F)(F)F)cc(F)c21 (single isomer, unassigned) [Example 567] was tested. Which IC50 did it give?
**A.** Its IC50 is 313 nM.

**Q.** How did the IC50 turn out when CN(C(=O)c1cc2c(cn1)nc(N)c1cnn(C)c12)[C@@H]1COc2cc(C(F)(F)F)ncc21 (single isomer, unassigned) [Example 568] was run?
**A.** Its IC50 is 97 nM.

**Q.** With CN(C(=O)c1cc2c(cc1F)nc(N)c1cnn(C)c12)[C@@H]1COc2cc(OC(F)F)ccc21 (single isomer, unassigned) [Example 569] as the compound, how does the IC50 read?
**A.** Its IC50 is 6 nM.

**Q.** With CN(C(=O)c1cc2c(cc1F)nc(N)c1cnn(C)c12)[C@H]1COc2cc(OC(F)F)ccc21 (single isomer, unassigned) [Example 570] as the compound, how does the IC50 read?
**A.** The IC50 was 134 nM.

**Q.** For CN(C(=O)c1cc2c(cc1F)nc(N)c1cnn(C)c12)[C@@H]1COc2cc(C(F)(F)F)ccc21 (single isomer, unassigned) [Example 571], which IC50 is on record?
**A.** Its IC50 is 10 nM.

**Q.** CN(C(=O)c1cc2c(cc1F)nc(N)c1cnn(C)c12)[C@H]1COc2cc(C(F)(F)F)ccc21 (single isomer, unassigned) [Example 572] was tested. Which IC50 did it give?
**A.** The IC50 was 758 nM.

**Q.** How did the IC50 turn out when CN(C(=O)c1cc2c(cc1F)nc(N)c1cnn(C)c12)[C@@H]1COc2cc(C(F)(F)F)ncc21 (single isomer, unassigned) [Example 573] was run?
**A.** Its IC50 is 12 nM.

**Q.** Which IC50 does the source give for CN(C(=O)c1cc2c(cc1F)nc(N)c1cnn(C)c12)[C@H]1COc2cc(C(F)(F)F)ncc21 (single isomer, unassigned) [Example 574] here?
**A.** Its IC50 is 415 nM.

**Q.** How did the IC50 turn out when CN(C(=O)c1ccc2nc(N)c3c(cnn3C)c2c1)[C@@H]1COc2cc(C(F)(F)F)ccc21 (single isomer, unassigned) [Example 575] was run?
**A.** Its IC50 is 179 nM.

**Q.** Which IC50 does the source give for CN(C(=O)c1ccc2nc(N)c3c(cnn3C)c2c1)[C@H]1COc2cc(C(F)(F)F)ccc21 (single isomer, unassigned) [Example 576] here?
**A.** Its IC50 is 4920 nM.
